Measured values published in ChEMBL document CHEMBL4689842, “EUbOPEN Chemogenomics Library wave 1” (2021).

Tests used:
Format in all cases: toxicity, cell-based
HEK-293T = experiment: Incucyte cell viability with HEK293T; details: human, 10 µM, compound concentration 10 uM
U2OS = experiment: Incucyte cell viability with U2OS; details: human, 10 µM, compound concentration 10 uM
Fibroblast = experiment: Incucyte cell viability with human fibroblast; details: 10 µM, compound concentration 10 uM
[1] = 0 h, replicate number 1, timepoint 0 hours
[2] = 0 h, replicate number 2, timepoint 0 hours
[3] = 24 h, replicate number 2, timepoint 24 hours
[4] = 6 h, replicate number 1, timepoint 6 hours
[5] = 12 h, replicate number 1, timepoint 12 hours
[6] = 18 h, replicate number 1, timepoint 18 hours
[7] = 18 h, replicate number 2, timepoint 18 hours
[8] = 24 h, replicate number 1, timepoint 24 hours
[9] = 6 h, replicate number 2, timepoint 6 hours
[10] = 12 h, replicate number 2, timepoint 12 hours
Further: filed as whole numbers so only -1 and 0 and 1 occur.

SMILES | Growth Rate (HEK-293T; [1]) | Growth Rate (HEK-293T; [2]) | Growth Rate (HEK-293T; [3]) | Growth Rate (U2OS; [1]) | Growth Rate (U2OS; [4]) | Growth Rate (U2OS; [5]) | Growth Rate (U2OS; [6]) | Growth Rate (U2OS; [8]) | Growth Rate (Fibroblast; [1]) | Growth Rate (Fibroblast; [4]) | Growth Rate (Fibroblast; [5]) | Growth Rate (Fibroblast; [6]) | Growth Rate (Fibroblast; [8]) | Growth Rate (HEK-293T; [4]) | Growth Rate (HEK-293T; [9]) | Growth Rate (HEK-293T; [5]) | Growth Rate (HEK-293T; [6]) | Growth Rate (HEK-293T; [8]) | Growth Rate (Fibroblast; [3]) | Growth Rate (U2OS; [9]) | also measured
C[C@H](c1ccnc(Nc2nc3ccc(-c4cc(N(C)C)ncn4)cc3[nH]2)c1)N1CCN(C(=O)CC(F)(F)F)CC1 [BAY-985] | 0 | 1 | 1 | 0 | 1 | 1 | 0 | 1 | 1 | 1 | 1 | 1 | 1 |  |  |  |  |  |  |  | Growth Rate (U2OS; [7]): 1
CC(=O)N1CCC(c2ccc(C(=O)NC3=NCCN3)cc2C(F)(F)F)CC1 [BI 0054] | 1 | 0 | 0 | 0 |  | 1 | 1 | 1 | 0 | 1 | 1 | 1 | 1 | 1 | 0 | 0 | 1 | 1 |  |  | Growth Rate (HEK-293T; [7]): 0; Growth Rate (Fibroblast; [9]): 0
CN(C)C(=O)Cn1cc(-c2nc(C3(c4ccc(-c5cnc(N)nc5)cc4)CC3)no2)cn1 [BI 0153] |  | 1 | 1 | 0 | 0 | 0 | 0 | 0 | 1 | 0 | 0 | 0 | 0 | 0 | 1 | 0 | 0 | 0 | 1 |  | Growth Rate (HEK-293T; [10]): 1; Growth Rate (U2OS; [3]): 1; Growth Rate (Fibroblast; [2]): 0; Growth Rate (Fibroblast; [10]): 1
CCC(=O)N[C@H]1CC[C@@H](C(=O)N(C)c2ccc(-c3nc4ccccc4o3)cc2)C1 [BI 99179] |  | 1 |  | 0 | 0 | 1 | 1 | 1 | 0 | 1 | 1 | 0 | 0 | 0 |  | 0 | 0 | 0 | 1 | 1 | Growth Rate (U2OS; [7]): 0; Growth Rate (U2OS; [3]): 0; Growth Rate (Fibroblast; [2]): 1
CCC(=O)N[C@@H]1CC[C@H](C(=O)N(C)c2ccc(-c3nc4ccccc4o3)cc2)C1 [BI 99990] | 0 | 1 |  | 0 | 0 | 0 | 0 | 0 | 0 | 0 | 0 | 0 | 1 | 0 |  | 0 | 0 | 0 | 0 | 1 | Growth Rate (U2OS; [10]): 1
CS(=O)(=O)c1cc(C2(NC(=O)c3cncc4c3cnn4-c3ccc(F)cc3)CC2)ccn1 [BI 639667] | 0 |  |  | 0 |  | 1 | 0 | 1 | 0 | 1 | 1 | 0 | 0 | 1 | 0 | 1 | 1 | 1 |  | 1 | Growth Rate (HEK-293T; [10]): 0; Growth Rate (U2OS; [2]): 1; Growth Rate (U2OS; [10]): 0; Growth Rate (U2OS; [7]): 1; Growth Rate (Fibroblast; [9]): 0; Growth Rate (Fibroblast; [10]): 0
CC(C)NCC(O)c1ccc(N)c(C#N)c1 (stereo not drawn) [CIMATEROL] | 0 |  |  | 0 | 1 | 1 | 0 | 1 | 0 |  |  |  |  | 0 | 1 | 0 | 0 | 0 | 1 |  | Growth Rate (HEK-293T; [10]): 1; Growth Rate (HEK-293T; [7]): 1; Growth Rate (U2OS; [7]): 1; Growth Rate (U2OS; [3]): 0; Growth Rate (Fibroblast; [10]): 1; Growth Rate (Fibroblast; [7]): 0
O=C(c1ccc(F)c(F)c1Nc1ccc(I)cc1F)N1CC(O)([C@@H]2CCCCN2)C1 [COBIMETINIB] |  |  | 0 | 0 | 0 | 0 | 0 | 0 |  |  |  |  | 1 | 0 |  |  |  | 1 |  | 1 | Growth Rate (HEK-293T; [10]): 0; Growth Rate (HEK-293T; [7]): 1
CN(C)CC[C@@H](c1ccc(Cl)cc1)c1ccccn1.O=C(O)/C=C\C(=O)O [DEXCHLORPHENIRAMINE MALEATE] | 0 |  |  | 0 |  | 1 | 0 | 1 | 0 | 1 | 1 | 1 | 1 | 1 | 0 | 1 | 1 | 1 | 0 | 0 | Growth Rate (U2OS; [10]): 0; Growth Rate (U2OS; [3]): 0; Growth Rate (Fibroblast; [7]): 0
CCCCC[C@H](O)/C=C/[C@@H]1[C@@H](C/C=C\CCCC(=O)O)[C@@H](O)C[C@H]1O [DINOPROST] | 1 | 0 |  | 0 |  | 1 | 1 | 1 | 0 |  |  |  |  | 0 |  | 0 | 0 | 0 | 1 | 0 | Growth Rate (Fibroblast; [9]): 1; Growth Rate (Fibroblast; [10]): 0; Growth Rate (Fibroblast; [7]): 1
